# Reference: US6007834A (priority 1997, dated 1999)
# Columns and labels:
# [1] = system: nasal mucosa; conditions: propylene glycol in place of ethanol; cited from earlier work
# [2] = Blood plasma melatonin concentrations and pharmacokinetics in healthy male volunteers, by radioimmunoassay (cross-over study); assay type: in vivo, human; conditions: for Tmax: human, plasma
# Procedure: An open randomized, four treatment (treatments A, B, C and D below), cross-over study involving 8 healthy male volunteers was carried out. Before drug administration, the subjects were fasted overnight for at least 10 hours. The administered formulations were as follows:
# A: 100 μl water, intranasal (placebo);
# [3] = cited from earlier work
# [4] = system: epithelial membrane
# [5] = system: nasal mucosa; conditions: in vivo
structure (smiles),measurement,setting,value
CC(O)CO (stereo not drawn) [propylene glycol],toxicity to the nasal mucosa,[1],adversely affects the nasal mucosa
"COc1ccc2[nH]cc(CCNC(C)=O)c2c1 [melatonin, N-acetyl-5-methoxytryptamine]","Cmax, times higher than that resulting from the oral dose",[2]; 0.2 mg nasal vs 2.5 mg oral,about 5 times
same,"amount of melatonin absorbed, 0.2 mg nasal dose vs 2.5 mg oral dose",[2]; 0.2 mg nasal vs 2.5 mg oral,About the same amount
same,"amount of melatonin absorbed, 0.4 mg nasal dose vs 0.2 mg nasal dose",[2]; 0.4 mg nasal vs 0.2 mg nasal,proportional
same,"Cmax, times higher than that resulting from the oral dose",[2]; 0.4 mg nasal vs 2.5 mg oral,~11 times
same,dose proportionality of peak plasma concentrations (Cmax),[2]; 0.2 and 0.4 mg nasal doses,proportional
same,Tmax,"[2]; po, 2.5 mg",1.5 h
same,Tmax,[2]; 0.2 and 0.4 mg nasal doses,< 0.167 h
same,rate of absorption,[2]; nasally administered,absorbed extremely rapidly
same,solubility in water,[3],low solubility
OCC(O)CO [glycerol],toxicity towards the epithelial membrane,[4],does not exert toxicity towards the epithelial membrane
same,irritation of the nasal mucosa,[5],does not lead to irritation of the nasal mucosa
